Measurements from patent US5721219A, “N-alkyl-2-substituted ATP analogues and administration to inhibit platelet aggregation” (Astra Pharmaceuticals Ltd., priority 1993, dated 1998).
Where a name gives a salt, the structure may show the parent alone.

Legend:
P2T receptor = biological target: T1, P2T receptor (Homo sapiens, UniProt Q9H244); test: P2T receptor agonist/antagonist activity in washed human platelets (inhibition of ADP-induced aggregation); format: cell-based; conditions: submaximal ADP, 15 min incubation with test compound, 8-SPT present, % inhibition of control ADP response giving approximate IC50, read-out: pIC50 (negative logarithm of the antagonist potency) (converted)
T1 construct: activity in washed human platelets; endogenous in cells; host or cells: washed human platelets from venous blood of donors
Method: Quantification of P2T receptor aganoist/antagonist activity in washed human platelets Human venous blood (100 ml) was divided equally between 3 tubes, each containing 3.2% trisodium citrate (4 ml) as anti-coagulant. The tubes were centrifuged for 15 min at 240G to obtain a platelet-rich plasma (PRP) to which 300 ng.ml^-1 prostacyclin (PGI2, 3 μl.ml^-1 PRP of 1/10 diln. in saline from stock 1 mg/ml^-1 in ethanol) was added to stabilize the platelets during the washing procedure. Red cell free PRP was obtained by centrifugation for 10 min at 125G followed by further centrifugation for 15 min at 640G. The supernatant was discarded and the platelet pellet resuspended in modified, calcium free, Tyrode solution [(10 ml) CFT, composition: NaCl 137 mM (8 g.l^-1), NaHCO3 11.9 mM (1 g.l^-1), NaH2 PO, 0.38 mM (0.06 g.l^-1), KCl 2.86 mM (1 ml of 20% soln.l^-1), MgCl2 1.05 mM (1 ml of 10% soln.l^-1), dextrose 5.55 mM (1 g.l^-1)], gassed with 95% O2 /5% CO2 and maintained at 37°. Following addition of a further 300 ng.ml^-1PGI2, the pooled suspension was centrifuged once more for 15 min at 640G. The supernatant was discarded and the platelets resuspended initially in 10 ml CFT with further CFT added to adjust the final platelet count to 2×10^5.μl^-1. This final suspension was stored in a 60 ml syringe at 3° with air excluded.
To allow recovery from PGI2 -inhibition of normal function, platelets were used in aggregation studies no sooner than 2 hours after final resuspension. […]
A concentration of ADP producing a just submaximal response was selected by constructing a concentration/response curve over the range 10-300 μM. the appropriate solution of ADP was added to the aggregation cuvette in a volume of 10 μl, 20 min after starting the aggregation trace. Aggregation responses were measured using the maximum rate of change in light transmission, an index given by the PAP4 slope-reader. […]

platelet aggregation = conditions: Cusack and Hourani, Nucleosides & Nucleotides 1991; cited from earlier work
guinea pig taenia coli = conditions: Maguire and Satchell 1979; cited from earlier work

T1 sequence (Q9H244 whole entry): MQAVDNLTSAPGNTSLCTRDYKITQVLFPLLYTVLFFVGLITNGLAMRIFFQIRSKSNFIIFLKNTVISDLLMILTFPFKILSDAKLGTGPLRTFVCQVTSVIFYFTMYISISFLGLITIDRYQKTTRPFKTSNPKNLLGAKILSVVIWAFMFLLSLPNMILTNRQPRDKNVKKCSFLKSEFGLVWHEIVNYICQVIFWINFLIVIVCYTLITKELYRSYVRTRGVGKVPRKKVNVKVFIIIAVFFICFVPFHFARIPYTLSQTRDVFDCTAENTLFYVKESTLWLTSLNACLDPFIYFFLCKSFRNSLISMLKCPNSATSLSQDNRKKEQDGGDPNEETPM

| Compound | IC50 (P2T receptor) | also measured |
| --- | --- | --- |
| CSc1nc(N)c2ncn([C@@H]3O[C@H](COP(=O)(O)OP(=O)(O)CP(=O)(O)O)[C@@H](O)[C@H]3O)c2n1 [2-methylthio-5'-adenylic acid, monoanhydride with methylenebisphosphonic acid] |  | inhibition of ADP-α-S induced platelet aggregation (platelet aggregation): inhibits |
| O=P(O)(OC[C@H]1O[C@@H](n2cnc3c(NCC(F)(F)F)nc(SCCC(F)(F)F)nc32)[C@H](O)[C@@H]1O)OP(=O)(O)C(Cl)(Cl)P(=O)(O)O [Example 6a, N-(2,2,2-Trifluoroethyl)-2-[(3,3,3-trifluoropropyl)thio]-5'-adenylic acid, monoanhydride with dichloromethylenebisphosphonic acid, triammonium salt] | 0.724 nM |  |
| Nc1nc(Cl)nc2c1ncn2[C@@H]1O[C@H](COP(=O)(O)OP(=O)(O)CP(=O)(O)O)[C@@H](O)[C@H]1O [2-chloro-5'-adenylic acid, monoanhydride with methylenebisphosphonic acid] |  | inhibition of guinea pig taenia coli (guinea pig taenia coli): inhibition |

Further lines, with some results ahead:

| IC50 (P2T receptor) | Compound | also measured |
| --- | --- | --- |
| 0.912 nM | CCCSc1nc(NCC)c2ncn([C@@H]3O[C@H](COP(=O)(O)OP(=O)(O)C(Cl)(Cl)P(=O)(O)O)[C@@H](O)[C@H]3O)c2n1 [Example 1, N-Ethyl-2-(propylthio)-5'-adenylic acid, monoanhydride with dichloromethylenebisphosphonic acid, tetrasodium salt] |  |
| 2.09 nM | CCNc1nc(SCCC(F)(F)F)nc2c1ncn2[C@@H]1O[C@H](COP(=O)(O)OP(=O)(O)C(Cl)(Cl)P(=O)(O)O)[C@@H](O)[C@H]1O [Example 5, N-Ethyl-2-[(3,3,3-trifluoropropyl)thio]-5'-adenylic acid, monoanhydride with dichloromethylenebisphosphonic acid, trisodium salt] |  |
